Seven compounds from DBAASP can be followed below.

Each structure is given as a SMILES string. In brackets after ≈: the same amount, converted by molar mass. Some results are limits rather than exact numbers.

Some test systems named below: Cladosporium herbarum; Botrytis cinerea; Alternaria alternata; Escherichia coli SPE 001; Escherichia coli BL2.
Assay in all cases: ≥ marks a high value that may be exact or a test limit, other limits are often not marked, values filed in µg/mL are converted to µM
Experiment [1] concerns Salmonella enterica subsp. enterica serovar Typhimurium ATCC 14028.
Experiment [2] relates to Escherichia coli ATCC 11219.
Experiment [3] has as its system Staphylococcus aureus ATCC 6538.
The subject of experiment [4] is Klebsiella pneumoniae ATCC 10031.
Experiment [5] deals with Pseudomonas aeruginosa ATCC 13388.
Experiment [6] deals with Xanthomonas vesicatoria DSM 50861.
Experiment [7] has as its system Pseudomonas syringae pv. syringae DSM 10604.
Experiment [8] concerns Clavibacter michiganensis subsp. michiganensis DSM 46294.
Experiment [9] concerns Pseudomonas syringae pv. tomato DC3000.
The subject of experiment [10] is Pseudomonas corrugata DSM 7228.
The subject of experiment [11] is Pectobacterium carotovorum subsp. carotovorum DSM 30168.
The subject of experiment [12] is Staphylococcus aureus USA 100.
In experiment [13] the test system is Staphylococcus aureus SPM 101.
Experiment [14] relates to Staphylococcus aureus USA 300.
For experiment [15], the system named is Pseudomonas aeruginosa ATCC 9027.
Experiment [16] deals with Staphylococcus aureus NBRC 100910.
Experiment [17] concerns Candida albicans ATCC 90028.
Experiment [18] relates to Staphylococcus aureus DBFIQ S21.
Experiment [19] concerns Listeria monocytogenes DBFIQ LM3.
Experiment [20] deals with Staphylococcus aureus 90857.
The subject of experiment [21] is Micrococcus luteus ATCC 7468.
Experiment [22] concerns Staphylococcus aureus ATCC 502A.
The subject of experiment [23] is Acinetobacter baumannii ATCC 15308.
Experiment [24] has as its system Enterococcus faecium ATCC 19434.
Experiment [25] concerns Pseudomonas sp. ATCC 15915.
The test system of experiment [26] is Staphylococcus aureus CGMCC 1.0363.
Experiment [27] concerns Vibrio alginolyticus CGMCC 1.1833.
In experiment [28] the test system is Vibrio parahaemolyticus CGMCC 1.1615.
Experiment [29] deals with Corynebacterium glutamicum CGMCC 1.1886.
The test system of experiment [30] is Aeromonas hydrophila CGMCC 1.0927.
The subject of experiment [31] is Escherichia coli ATCC 25922.

For the compound `CC[C@H](C)[C@H](NC(=O)CN)C(=O)N[C@@H](CCCN=C(N)N)C(=O)N[C@@H](CCCN=C(N)N)C(=O)N[C@H](C(=O)N[C@@H](CC(C)C)C(=O)N[C@@H](CCCN=C(N)N)C(=O)N[C@@H](Cc1ccc(O)cc1)C(=O)NCC(=O)N[C@@H](CCCN=C(N)N)C(=O)N[C@@H](CCCN=C(N)N)C(=O)N[C@@H](CO)C(N)=O)[C@@H](C)CC` [GIRRILRYGRRS], the minimum inhibitory concentration (MIC) in [1] worked out at 10 µM (≈ 15 µg/mL); in [2] it was 3 µM (≈ 4.51 µg/mL); in [3], 10 µM (≈ 15 µg/mL); in [4], 5 µM (≈ 7.51 µg/mL); in experiment [5], 20 µM (≈ 30 µg/mL).
For the compound `CC(C)C[C@H](NC(=O)[C@H](C)NC(=O)CNC(=O)[C@H](CCCN=C(N)N)NC(=O)[C@H](Cc1ccccc1)NC(=O)[C@H](C)NC(=O)[C@H](CCCN=C(N)N)NC(=O)[C@H](Cc1ccccc1)NC(=O)[C@H](C)NC(=O)[C@H](C)NC(=O)[C@H](CC(C)C)NC(=O)[C@H](CCCN=C(N)N)NC(=O)[C@H](CCCN=C(N)N)NC(=O)[C@@H](N)CCCCN)C(=O)N[C@@H](CCCCN)C(=O)N[C@@H](CO)C(=O)N[C@H](C(=O)N[C@@H](CC(C)C)C(=O)N[C@@H](CCCCN)C(=O)N[C@@H](CCCCN)C(N)=O)C(C)C` [KRRLAAFRAFRGALKSVLKK], the minimal inhibitory concentration (MIC) is 2.16 µM (≈ 5 µg/mL) in experiment [6]; 2.16 µM (≈ 5 µg/mL) in [7]; 2.16 µM (≈ 5 µg/mL) in experiment [8]; 8.63 µM (≈ 20 µg/mL) in the experiment on Cladosporium herbarum; no less than 43.2 µM with Botrytis cinerea; 2.16 µM (≈ 5 µg/mL) in experiment [9]. Further, the minimal inhibitory concentration (MIC) against Alternaria alternata was no less than 43.2 µM; in [10], 1.08 µM (≈ 2.5 µg/mL); in experiment [11], 17.3 µM (≈ 40 µg/mL).
`CC(C)C[C@H](NC(=O)[C@H](CCCCN)NC(=O)[C@H](CC(C)C)NC(=O)[C@H](CC(C)C)NC(=O)[C@H](CC(C)C)NC(=O)[C@H](CCCCN)NC(=O)[C@H](CC(C)C)NC(=O)[C@@H](N)CCCCN)C(=O)N[C@@H](CCCCN)C(N)=O` [KLKLLLKLK]: the minimum inhibitory concentration (MIC) against Escherichia coli SPE 001 is 7.3 µM (≈ 7.99 µg/mL); in [12], no less than 50 µM; in experiment [13] it was 1.82 µM (≈ 2 µg/mL); in [14], no less than 50 µM; in [15], 12.5 µM (≈ 13.7 µg/mL); in experiment [16], no less than 117 µM. In addition, in [17], the MIC is no less than 100 µM.
For the compound `CC[C@H](C)[C@H](NC(=O)[C@H](C)NC(=O)[C@@H](NC(=O)[C@H](C)NC(=O)CNC(=O)[C@H](CCSC)NC(=O)[C@H](CCC(N)=O)NC(=O)[C@H](CC(C)C)NC(=O)[C@H](CO)NC(=O)[C@@H](N)Cc1ccc(O)cc1)[C@@H](C)O)C(=O)N[C@@H](CCCCN)C(=O)N[C@@H](CCC(N)=O)C(=O)N[C@H](C(=O)N[C@@H](CCCCN)C(=O)N[C@@H](CCCCN)C(=O)N[C@@H](CC(C)C)C(=O)N[C@@H](Cc1ccccc1)C(=O)N[C@@H](CCCCN)C(=O)N[C@@H](CCCCN)C(=O)N[C@@H](CCCCN)C(=O)NCC(=O)NCC(N)=O)C(C)C` [YSLQMGATAIKQVKKLFKKKGG], the minimum inhibitory concentration (MIC) turned out to be 6.6 µM (≈ 16 µg/mL) in experiment [18] and 1.7 µM (≈ 4.12 µg/mL) in experiment [19].
Take `CC[C@H](C)[C@H](NC(=O)[C@@H](NC(=O)[C@H](CCCCN)NC(=O)[C@H](CCCCN)NC(=O)[C@@H](NC(=O)[C@@H](NC(=O)[C@H](CCCCN)NC(=O)[C@@H](NC(=O)[C@H](CCCCN)NC(=O)[C@H](CCCCN)NC(=O)[C@H](CCCCN)NC(=O)[C@@H](N)CCCN=C(N)N)[C@@H](C)CC)[C@@H](C)CC)[C@@H](C)CC)[C@@H](C)CC)C(N)=O` [RKKKIKIIKKII]: the MIC was 1.66 µM (≈ 2.5 µg/mL) in experiment [6]; 0.331 µM (≈ 0.5 µg/mL) in experiment [7]; 1.66 µM (≈ 2.5 µg/mL) in experiment [8]; 3.31 µM (≈ 5 µg/mL) in [9]; 3.31 µM (≈ 5 µg/mL) in experiment [10]; no less than 62.5 µM in [20]. This compound yielded an MIC in [11] of 6.63 µM (≈ 9.99 µg/mL).
As to `CC[C@H](C)[C@H](NC(=O)[C@H](C)NC(=O)[C@H](CCCN=C(N)N)NC(=O)[C@H](CCSC)NC(=O)[C@H](C)NC(=O)[C@@H](NC(=O)[C@@H](N)[C@@H](C)O)[C@@H](C)CC)C(=O)N[C@@H](CC(N)=O)C(=O)N[C@@H](CC(N)=O)C(=O)N[C@@H](Cc1ccc(O)cc1)C(=O)N[C@@H](CCCN=C(N)N)C(=O)N[C@@H](Cc1c[nH]c2ccccc12)C(=O)N[C@@H](CCCN=C(N)N)C(=O)N[C@@H](CO)C(=O)N[C@@H](CCCCN)C(=O)N[C@@H](CC(N)=O)C(=O)N[C@@H](CCC(N)=O)C(=O)N[C@@H](CC(N)=O)C(=O)N[C@H](C(=O)N[C@@H](Cc1ccccc1)C(=O)N[C@@H](CC(C)C)C(=O)N[C@@H](CCCN=C(N)N)C(=O)O)[C@@H](C)O` [TIAMRAINNYRWRSKNQNTFLR], the MIC is 7 µM (≈ 19.3 µg/mL) in experiment [21]; 1.5 µM (≈ 4.13 µg/mL) in [22]; 1.1 µM (≈ 3.03 µg/mL) in experiment [23]; 7 µM (≈ 19.3 µg/mL) in experiment [24]; 7 µM (≈ 19.3 µg/mL) in [25]; 7 µM (≈ 19.3 µg/mL) with Escherichia coli BL2.
Take `CSCC[C@H](NC(=O)[C@H](CO)NC(=O)[C@H](CC(C)C)NC(=O)[C@H](Cc1cnc[nH]1)NC(=O)[C@H](CO)NC(=O)[C@@H](N)CCC(N)=O)C(=O)N[C@H]1CSSC[C@@H](C(=O)N[C@@H](CCCN=C(N)N)C(=O)N[C@@H](Cc2ccccc2)C(=O)O)NC(=O)[C@@H]2CSSC[C@@H]3NC(=O)[C@@H]4CSSC[C@H](NC(=O)[C@H](C(C)C)NC(=O)[C@H](CO)NC1=O)C(=O)N[C@@H](CSSC[C@H](NC(=O)CNC(=O)[C@H](CCCCN)NC(=O)[C@H](Cc1ccc(O)cc1)NC(=O)[C@H](CC(N)=O)NC(=O)[C@H](CCCCN)NC3=O)C(=O)NCC(=O)N[C@@H](Cc1ccccc1)C(=O)N2)C(=O)N[C@@H](CC(N)=O)C(=O)N4` [QSHLSMCSVCCNCCKNYKGCGFCCRF]: the MIC in experiment [26] is 12 µM (≈ 35 µg/mL); in experiment [27], no less than 48 µM; in [28], no less than 48 µM; in experiment [29], 12 µM (≈ 35 µg/mL); in experiment [30] it was 12 µM (≈ 35 µg/mL); in experiment [31], 24 µM (≈ 70 µg/mL).
